In test [1] the target is Tubulin alpha chain (Sus scrofa) (UniProt P02550). Kind of test: Inhibitory activity against tubulin polymerization at 1.0 mM concentration. The format is functional.
The subject of the next test is 1A9/ptx-10. In words: Inhibitory activity against Taxol resistant PTX10 cell lines. The test is classed as functional, cell-based. Particulars: Homo sapiens.
The subject of a further test is 1A9/ptx-22. Kind of test: Inhibitory activity against Taxol resistant PTX22 cell lines. Particulars: Homo sapiens. The format is functional, cell-based.
The next test concerns 1A9. In words: Inhibitory activity against Taxol resistant 1A9 cell lines. The format is functional, cell-based. Particulars: Homo sapiens.
Test [2] concerns the target Tubulin alpha chain (Sus scrofa) (UniProt P02550). Kind of test: Inhibitory activity against tubulin polymerization at 0.25 mM concentration. The test is classed as functional.
Test [3] has the same target. Kind of test: Inhibitory activity against tubulin polymerization at 0.5 mM concentration. The test is classed as functional.
Test [4] has the same target. In words: Inhibitory activity against tubulin polymerization at 2.0 mM concentration. The test is classed as functional.

Sequence of Tubulin alpha chain (Sus scrofa) (P02550 whole entry, looked up): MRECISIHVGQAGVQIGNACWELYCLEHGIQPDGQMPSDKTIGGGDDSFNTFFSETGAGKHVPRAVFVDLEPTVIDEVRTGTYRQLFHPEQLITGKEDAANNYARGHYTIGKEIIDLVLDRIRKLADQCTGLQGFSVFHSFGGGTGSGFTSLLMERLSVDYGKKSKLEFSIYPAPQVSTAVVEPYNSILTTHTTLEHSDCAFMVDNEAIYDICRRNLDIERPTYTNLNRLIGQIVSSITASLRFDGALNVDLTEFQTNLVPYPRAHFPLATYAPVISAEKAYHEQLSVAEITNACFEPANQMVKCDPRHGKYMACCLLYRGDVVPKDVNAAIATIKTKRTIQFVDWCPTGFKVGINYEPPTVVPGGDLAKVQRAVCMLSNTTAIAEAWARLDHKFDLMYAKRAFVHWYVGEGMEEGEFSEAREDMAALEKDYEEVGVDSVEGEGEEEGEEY

`COc1cc2c(c(OC)c1OC)-c1ccc(OC)c(=O)cc1[C@@H](NC(C)=O)CC2` [COLCHICINE]: the inhibition in test [1] came out at 4%; in test [2] it was 4%; in test [3], 3%; in test [4], 0%. Moreover, the IC50 with 1A9/ptx-10, in the test with 1A9/ptx-22 and in the test on 1A9 was above 2500 nM in each case.
For `COc1ccc2cc1Oc1ccc(cc1)CC(O)COC(=O)CC2` (configuration not stated), the inhibition came out at 62% in test [1], 27% in test [2], 47% in test [3] and 76% in test [4]. Further, the IC50 in the test on 1A9/ptx-10, with 1A9/ptx-22 and with 1A9 was above 2500 nM in each case.
In the case of `COc1c(Br)cc2cc1Oc1ccc(cc1)CC(O)COC(=O)CC2` (configuration not stated), the inhibition in test [1] stood at 39%; in test [2] it was 3%; in test [3] it was 21%; in test [4], 67%. The IC50 in the test on 1A9/ptx-10, with 1A9/ptx-22 and in the test on 1A9 was above 2500 nM throughout.
For `COc1ccc2cc1Oc1ccc(cc1)/C=C\COC(=O)CC2`, the inhibition amounted to 27% in test [1], 16% in test [2], 19% in test [3] and 35% in test [4]. Further, the IC50 in the test on 1A9/ptx-10, in the test on 1A9/ptx-22 and in the test on 1A9 was above 2500 nM throughout.
With `COc1ccc2cc1Oc1ccc(cc1)CC(I)COC(=O)CC2` (configuration not stated), the inhibition was 35% in test [1], 5% in test [2], 28% in test [3] and 54% in test [4]. Besides, the IC50 in the test with 1A9/ptx-10, in the test with 1A9/ptx-22 and in the test on 1A9 was above 2500 nM throughout.
Turning to `COc1ccc2cc1Oc1ccc(cc1)C1OC1COC(=O)CC2` (configuration not stated), the inhibition in test [1] was determined as 27%; in test [2] it was 0%; in test [3], 20%; in test [4], 39%. Moreover, the IC50 with 1A9/ptx-10, with 1A9/ptx-22 and in the test with 1A9 was above 2500 nM throughout.

The values above are taken from ChEMBL document CHEMBL1132033, “Stabilization of microtubules by Combretastatin D derivatives” (Bioorg Med Chem Lett, 1999).
